The nature of this data set: Aqueous solubility (statements).

For “Acinetobacter polyelectrolyte exopolysaccharide [APE]”, the “solubility in aqueous solutions versus pH” value is recorded as “soluble throughout the pH range”.

For the origin of these results see patent publication US8609835B2, “Polysaccharide composition and methods of isolation of the emulsion stabilizing cationic polyelectrolytic polysaccharide” (Trustees Of Tufts College, priority 2008, dated 2013).
